Experimental data: PubChem BioAssay (NCI)
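Cultured in 96-well plates, cells were exposed to test compound for 48 hours across five concentrations. TGI denotes the concentration required for complete inhibition of growth.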

Legend:
Test in all cases: DTP human tumour cell line panel, 48 h
786-0 renal = tested on: 786-0 renal
A498 renal = tested on: A498 renal
A549 NSCLC = tested on: A549 NSCLC
ACHN renal = tested on: ACHN renal
CAKI-1 renal = tested on: CAKI-1 renal
CCRF-CEM leukemia = tested on: CCRF-CEM leukemia
COLO 205 colon = tested on: COLO 205 colon
DLD-1 colon = tested on: DLD-1 colon
DMS 114 small cell lung = tested on: DMS 114 small cell lung
DMS 273 small cell lung = tested on: DMS 273 small cell lung
EKVX NSCLC = tested on: EKVX NSCLC
HCC-2998 colon = tested on: HCC-2998 colon
HCT-116 colon = tested on: HCT-116 colon
HL-60(TB) leukemia = tested on: HL-60(TB) leukemia
HOP-18 NSCLC = tested on: HOP-18 NSCLC
HOP-62 NSCLC = tested on: HOP-62 NSCLC
HOP-92 NSCLC = tested on: HOP-92 NSCLC
HT29 colon = tested on: HT29 colon
IGROV1 ovarian = tested on: IGROV1 ovarian
K-562 leukemia = tested on: K-562 leukemia
KM12 colon = tested on: KM12 colon
KM20L2 colon = tested on: KM20L2 colon
LOX IMVI melanoma = tested on: LOX IMVI melanoma
LXFL 529 NSCLC = tested on: LXFL 529 NSCLC
M14 melanoma = tested on: M14 melanoma
M19-MEL melanoma = tested on: M19-MEL melanoma
MALME-3M melanoma = tested on: MALME-3M melanoma
MOLT-4 leukemia = tested on: MOLT-4 leukemia
NCI-H226 lung = tested on: NCI-H226 lung
NCI-H23 lung = tested on: NCI-H23 lung
NCI-H460 lung = tested on: NCI-H460 lung
NCI-H522 lung = tested on: NCI-H522 lung
OVCAR-3 ovarian = tested on: OVCAR-3 ovarian
OVCAR-4 ovarian = tested on: OVCAR-4 ovarian
OVCAR-5 ovarian = tested on: OVCAR-5 ovarian
OVCAR-8 ovarian = tested on: OVCAR-8 ovarian
RPMI-8226 leukemia = tested on: RPMI-8226 leukemia
RXF 393 renal = tested on: RXF 393 renal
RXF-631 renal = tested on: RXF-631 renal
SF-268 CNS = tested on: SF-268 CNS
SF-295 CNS = tested on: SF-295 CNS
SF-539 CNS = tested on: SF-539 CNS
SK-MEL-2 melanoma = tested on: SK-MEL-2 melanoma
SK-MEL-28 melanoma = tested on: SK-MEL-28 melanoma
SK-MEL-5 melanoma = tested on: SK-MEL-5 melanoma
SK-OV-3 ovarian = tested on: SK-OV-3 ovarian
SN12C renal = tested on: SN12C renal
SNB-19 CNS = tested on: SNB-19 CNS
SNB-75 CNS = tested on: SNB-75 CNS
SNB-78 CNS = tested on: SNB-78 CNS
SR leukemia = tested on: SR leukemia
SW-620 colon = tested on: SW-620 colon
TK-10 renal = tested on: TK-10 renal
U251 CNS = tested on: U251 CNS
UACC-257 melanoma = tested on: UACC-257 melanoma
UACC-62 melanoma = tested on: UACC-62 melanoma
UO-31 renal = tested on: UO-31 renal
XF 498 CNS = tested on: XF 498 CNS
HCT-15 colon = tested on: HCT-15 colon

SMILES: CCCC[C@H](CCc1ccccc1)N(C(=O)OC)N1CCC[C@H]1COC
- TGI (786-0 renal): 45.2 µM
- TGI (A498 renal): 34.6 µM
- TGI (A549 NSCLC): 67.1 µM
- TGI (ACHN renal): 30.4 µM
- TGI (CAKI-1 renal): > 100 µM
- TGI (CCRF-CEM leukemia): 31.3 µM
- TGI (COLO 205 colon): 30.8 µM
- TGI (DLD-1 colon): 34.8 µM
- TGI (DMS 114 small cell lung): 30.2 µM
- TGI (DMS 273 small cell lung): 35.6 µM
- TGI (EKVX NSCLC): 35.2 µM
- TGI (HCC-2998 colon): 28.1 µM
- TGI (HCT-116 colon): 28.2 µM
- TGI (HL-60(TB) leukemia): > 100 µM
- TGI (HOP-18 NSCLC): 53.1 µM
- TGI (HOP-62 NSCLC): 40.4 µM
- TGI (HOP-92 NSCLC): 40.5 µM
- TGI (HT29 colon): 29.4 µM
- TGI (IGROV1 ovarian): 56.8 µM
- TGI (K-562 leukemia): 61.2 µM
- TGI (KM12 colon): 35.9 µM
- TGI (KM20L2 colon): 30.2 µM
- TGI (LOX IMVI melanoma): 34.9 µM
- TGI (LXFL 529 NSCLC): 39.6 µM
- TGI (M14 melanoma): 82.6 µM
- TGI (M19-MEL melanoma): 40.4 µM
- TGI (MALME-3M melanoma): 32.1 µM
- TGI (MOLT-4 leukemia): > 100 µM
- TGI (NCI-H226 lung): 36.2 µM
- TGI (NCI-H23 lung): 32 µM
- TGI (NCI-H460 lung): 31.6 µM
- TGI (NCI-H522 lung): 28.1 µM
- TGI (OVCAR-3 ovarian): 32.3 µM
- TGI (OVCAR-4 ovarian): 39.9 µM
- TGI (OVCAR-5 ovarian): 32.4 µM
- TGI (OVCAR-8 ovarian): 71.5 µM
- TGI (RPMI-8226 leukemia): > 100 µM
- TGI (RXF 393 renal): 32.9 µM
- TGI (RXF-631 renal): 32.4 µM
- TGI (SF-268 CNS): 43 µM
- TGI (SF-295 CNS): 33.5 µM
- TGI (SF-539 CNS): 33 µM
- TGI (SK-MEL-2 melanoma): 34.1 µM
- TGI (SK-MEL-28 melanoma): 38 µM
- TGI (SK-MEL-5 melanoma): 32.9 µM
- TGI (SK-OV-3 ovarian): 60.2 µM
- TGI (SN12C renal): 32.7 µM
- TGI (SNB-19 CNS): 30.4 µM
- TGI (SNB-75 CNS): 79.1 µM
- TGI (SNB-78 CNS): 47.3 µM
- TGI (SR leukemia): > 100 µM
- TGI (SW-620 colon): 29.8 µM
- TGI (TK-10 renal): 79.3 µM
- TGI (U251 CNS): 29.1 µM
- TGI (UACC-257 melanoma): 36.2 µM
- TGI (UACC-62 melanoma): 30.9 µM
- TGI (UO-31 renal): 35.4 µM
- TGI (XF 498 CNS): 28.5 µM

SMILES: CC(C)(C)OC(=O)NC(Cc1ccccc1)C(=S)N1CCCC1 (stereo unspecified)
- TGI (786-0 renal): > 100 µM
- TGI (A498 renal): > 100 µM
- TGI (A549 NSCLC): > 100 µM
- TGI (ACHN renal): > 100 µM
- TGI (CAKI-1 renal): > 100 µM
- TGI (CCRF-CEM leukemia): > 100 µM
- TGI (COLO 205 colon): > 100 µM
- TGI (DLD-1 colon): > 100 µM
- TGI (DMS 114 small cell lung): > 100 µM
- TGI (DMS 273 small cell lung): > 100 µM
- TGI (EKVX NSCLC): > 100 µM
- TGI (HCC-2998 colon): > 100 µM
- TGI (HCT-116 colon): > 100 µM
- TGI (HCT-15 colon): > 100 µM
- TGI (HL-60(TB) leukemia): > 100 µM
- TGI (HOP-18 NSCLC): > 100 µM
- TGI (HOP-62 NSCLC): 91 µM
- TGI (HOP-92 NSCLC): > 100 µM
- TGI (HT29 colon): > 100 µM
- TGI (IGROV1 ovarian): > 100 µM
- TGI (K-562 leukemia): > 100 µM
- TGI (KM12 colon): > 100 µM
- TGI (KM20L2 colon): > 100 µM
- TGI (LOX IMVI melanoma): > 100 µM
- TGI (LXFL 529 NSCLC): > 100 µM
- TGI (M14 melanoma): > 100 µM
- TGI (M19-MEL melanoma): > 100 µM
- TGI (MALME-3M melanoma): > 100 µM
- TGI (MOLT-4 leukemia): > 100 µM
- TGI (NCI-H226 lung): > 100 µM
- TGI (NCI-H23 lung): > 100 µM
- TGI (NCI-H460 lung): > 100 µM
- TGI (NCI-H522 lung): 96.9 µM
- TGI (OVCAR-3 ovarian): > 100 µM
- TGI (OVCAR-4 ovarian): > 100 µM
- TGI (OVCAR-5 ovarian): > 100 µM
- TGI (OVCAR-8 ovarian): > 100 µM
- TGI (RPMI-8226 leukemia): 98 µM
- TGI (RXF 393 renal): > 100 µM
- TGI (RXF-631 renal): > 100 µM
- TGI (SF-268 CNS): > 100 µM
- TGI (SF-295 CNS): > 100 µM
- TGI (SF-539 CNS): > 100 µM
- TGI (SK-MEL-2 melanoma): > 100 µM
- TGI (SK-MEL-28 melanoma): > 100 µM
- TGI (SK-MEL-5 melanoma): > 100 µM
- TGI (SK-OV-3 ovarian): > 100 µM
- TGI (SN12C renal): > 100 µM
- TGI (SNB-19 CNS): > 100 µM
- TGI (SNB-75 CNS): > 100 µM
- TGI (SNB-78 CNS): > 100 µM
- TGI (SW-620 colon): > 100 µM
- TGI (TK-10 renal): > 100 µM
- TGI (U251 CNS): > 100 µM
- TGI (UACC-257 melanoma): > 100 µM
- TGI (UACC-62 melanoma): > 100 µM
- TGI (UO-31 renal): > 100 µM
- TGI (XF 498 CNS): > 100 µM
